# From the supplement of paper PMC10307832
# Columns and labels:
# Assay in all cases: relative viability (nuclei count vs DMSO), 5 days (fraction); higher = more cells survive
# [1] = compound: Cc1ccc2nc(NCCN)c3ncc(C)n3c2c1 + NC(=O)Nc1cc(-c2cccc(F)c2)sc1C(=O)N[C@H]1CCCNC1 [AZD7762] (partner 0.2 µM)
# How it was run: (§1)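 A single step with final 0.05% Triton X-100, 1% formaldehyde and 1 ug/ml Hoechst fixed the cells and stained nuclei 5 days after treatment. Lung cancer cell lines in 1536-well plates had been treated by pin tool the day after seeding with one drug alone or a fixed anchor-drug dose plus five library-drug doses (not always all listed) in √10 steps, and nuclei were counted on 4× images. Relative viability is the ratio of nuclei in treated wells to nuclei in vehicle wells, taken as the median of duplicate plates.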
# [2] = compound: Cc1ccc2nc(NCCN)c3ncc(C)n3c2c1 + Cc1cc(Nc2cc(N3CCN(C)CC3)nc(Sc3ccc(NC(=O)C4CC4)cc3)n2)n[nH]1 [Tozasertib] (partner 0.1 µM)
# How it was run: as §1
# [3] = compound: Cc1ccc2nc(NCCN)c3ncc(C)n3c2c1 + Nc1nc2[nH]cc(CCc3ccc(C(=O)N[C@@H](CCC(=O)O)C(=O)O)cc3)c2c(=O)[nH]1 [Pemetrexed] (partner 0.2 µM)
# How it was run: as §1
# Salubrinal + Phenformin = compound: O=C(/C=C/c1ccccc1)NC(NC(=S)Nc1cccc2cccnc12)C(Cl)(Cl)Cl [Salubrinal] + N=C(N)NC(=N)NCCc1ccccc1 [Phenformin] (partner 250 µM)
# How it was run: as §1
Cell Line,relative viability ([1]; first compound 0.04 µM),relative viability ([1]; first compound 0.1265 µM),relative viability ([1]; first compound 0.4 µM),relative viability ([1]; first compound 1.265 µM),relative viability ([1]; first compound 4 µM),relative viability ([2]; first compound 0.04 µM),relative viability ([2]; first compound 0.1265 µM),relative viability ([2]; first compound 0.4 µM),relative viability ([2]; first compound 1.265 µM),relative viability ([2]; first compound 4 µM),relative viability ([3]; first compound 0.04 µM),relative viability ([3]; first compound 0.1265 µM),relative viability ([3]; first compound 0.4 µM),relative viability ([3]; first compound 1.265 µM),relative viability ([3]; first compound 4 µM),relative viability (Salubrinal + Phenformin; first compound 0.08 µM),relative viability (Salubrinal + Phenformin; first compound 0.253 µM),relative viability (Salubrinal + Phenformin; first compound 0.8 µM),relative viability (Salubrinal + Phenformin; first compound 2.53 µM),relative viability (Salubrinal + Phenformin; first compound 8 µM)
201T,0.639,0.569,0.66,0.598,0.618,0.985,0.976,0.908,0.971,0.913,0.372,0.321,0.323,0.276,0.343,0.44,0.32,0.508,0.462,0.456
A549,,,,,,,,,,,,,,,,0.174,0.143,0.175,0.119,0.17
A-427,0.816,0.748,0.748,0.721,0.723,0.229,0.21,0.185,0.212,0.196,0.979,0.939,1.02,0.95,0.948,0.326,0.336,0.382,0.292,0.28
ABC-1,0.765,0.999,0.798,0.741,0.648,0.171,0.15,0.171,0.187,0.22,,,,,,0.225,0.268,0.281,0.214,0.24
BEN,0.719,0.738,0.538,0.68,0.783,0.501,0.436,0.498,0.469,0.559,0.978,0.894,0.817,0.712,0.801,0.269,0.259,0.432,0.273,0.249
CAL-12T,0.657,0.649,0.557,0.576,0.481,0.288,0.353,0.376,0.291,0.269,1.42,1.13,1.15,1.04,1.03,0.627,0.485,0.613,0.578,0.438
COR-L23,,,,,,0.202,0.243,0.218,0.135,0.173,0.191,0.191,0.204,0.218,0.208,0.526,0.359,0.458,0.422,0.433
COR-L 105,,,,,,0.374,0.355,0.294,0.353,0.302,1.19,1.21,0.996,1.23,1.11,0.556,0.479,0.452,0.511,0.42
ChaGo-K-1,0.946,0.901,0.874,0.808,0.921,0.258,0.253,0.253,0.236,0.238,0.248,0.267,0.256,0.252,0.253,0.506,0.461,0.535,0.455,0.45
EKVX,0.723,0.704,0.693,0.682,0.525,0.433,0.359,0.366,0.349,0.407,0.394,0.404,0.387,0.36,0.313,0.228,0.23,0.236,0.203,0.228
EMC-BAC-2,1.2,1.11,1.04,1.06,1.02,0.297,0.282,0.313,0.265,0.288,0.463,0.43,0.4,0.448,0.496,0.471,0.326,0.601,0.513,0.493
EPLC-272H,0.228,0.404,0.214,0.177,0.166,0.249,0.33,0.348,0.237,0.251,0.278,0.358,0.488,0.281,0.414,0.256,0.236,0.342,0.259,0.282
H3255,0.923,0.963,0.829,0.76,0.746,0.703,0.55,0.629,0.477,0.455,0.573,0.568,0.536,0.557,0.525,0.364,0.349,0.44,0.386,0.335
HARA,0.401,0.33,0.256,0.274,0.337,0.77,0.156,0.126,0.107,0.11,0.217,0.237,0.226,0.236,0.234,0.607,0.484,0.483,0.445,0.47
HCC-15,1.23,1.27,1.19,1.17,1.18,0.382,0.412,0.439,0.345,0.247,0.233,0.203,0.223,0.252,0.236,0.524,0.431,0.533,0.487,0.391
HCC-44,0.988,1.05,0.933,0.992,1.02,1.06,0.896,1.04,0.753,0.645,0.679,0.704,0.643,0.594,0.709,0.193,0.212,0.391,0.364,0.182
HCC-78,0.828,0.72,0.616,0.752,0.586,0.4,0.375,0.291,0.403,0.388,0.935,0.791,0.904,0.839,0.922,0.736,0.647,0.898,0.75,0.679
HCC-366,0.272,0.278,0.318,0.228,0.239,0.119,0.135,0.215,0.116,0.221,0.157,0.202,0.146,0.126,0.165,0.685,0.579,0.645,0.642,0.646
